How the values were obtained:
Experiment in all cases: Broth microdilution MIC, Example 7 (NCL812 and analogues)
[1] = tested on: MRSA; assay type: cell-based, Staphylococcus aureus
Method: (§1) Minimum inhibitory concentrations (μg/ml) were determined using the broth microdilution method recommended by the Clinical and Laboratory Standards Institute (CLSI). MIC breakpoints were determined by visual assessment and then confirmed using an ELISA plate reader, measuring absorbance levels at 600 nm. Bacterial growth (turbidity) in the wells with antimicrobial was compared with the amount of growth (turbidity) in the growth-control well (containing no antimicrobial). All isolates were tested in duplicate, if there was a difference of greater than one two-fold dilution in the results, the test was repeated a third time. The purity of the isolates was closely monitored during testing by subculturing the prepared bacterial inoculum onto SBA (sheep blood agar). […] The MIC50, MIC20 and MIC range (minimum and maximum) were calculated for each of the bacterial groups.
(§2) MICs were determined against two MRSA strains, two VRE strains and one strain each of E. coli and Pseudomonas aeruginosa.

[2] = tested on: VRE; assay type: cell-based, Enterococcus spp.; conditions: for activity against VRE among analogues: MIC testing, two VRE strains
Method: as §1, §2

[3] = tested on: Escherichia coli; assay type: cell-based; conditions: 24 hours
[4] = tested on: Pseudomonas aeruginosa; assay type: cell-based; conditions: 24 hours
[5] = MRSA 1, 24 hours, duplicate lines per compound
[6] = MRSA 2, 24 hours, duplicate lines per compound
[7] = VRE 1, 24 hours, duplicate lines per compound
[8] = VRE 2, 24 hours, duplicate lines per compound
[9] = E. coli, duplicate lines per compound
[10] = P. aeruginosa, duplicate lines per compound
[11] = isolate MRSA 1, 24 hours, 1st and 2nd replicate rows
[12] = isolate MRSA 2, 24 hours, 1st and 2nd replicate rows
[13] = isolate VRE 1, 24 hours, 1st and 2nd replicate rows
[14] = isolate VRE 2, 24 hours, 1st and 2nd replicate rows

SMILES	MIC (μg/ml) at 24 hours, MRSA 1 [1, 5] [µg/mL]	MIC (μg/ml) at 24 hours, MRSA 2 [1, 6] [µg/mL]	MIC (μg/ml) at 24 hours, VRE 1 [2, 7] [µg/mL]	MIC (μg/ml) at 24 hours, VRE 2 [2, 8] [µg/mL]	MIC (μg/ml) at 24 hours, E. coli [3, 9] [µg/mL]	MIC (μg/ml) at 24 hours, P. aeruginosa [4, 10] [µg/mL]	MIC (μg/ml) at 24 hours, MRSA 1 [1, 11] [µg/mL]	MIC (μg/ml) at 24 hours, MRSA 2 [1, 12] [µg/mL]	MIC (μg/ml) at 24 hours, VRE 1 [2, 13] [µg/mL]	MIC (μg/ml) at 24 hours, VRE 2 [2, 14] [µg/mL]	MIC (μg/ml) at 24 hours, E. coli ([3]; 1st and 2nd replicate rows) [µg/mL]	MIC (μg/ml) at 24 hours, P. aeruginosa ([4]; 1st and 2nd replicate rows) [µg/mL]	further results
CC(=NNC(=N)NN=C(C)c1ccc(Cl)cc1N)c1ccc(Cl)cc1N.Cl [NCL 164]	>128	>128	>128	>128	>128	>128							
Cl.N=C(N/N=C/c1ccncc1)N/N=C/c1ccncc1 [NCL 149]	>128	>128	>128	>128	>128	>128							
CC(=NNC(=N)NN=C(C)c1ccc(C(F)(F)F)cc1)c1ccc(C(F)(F)F)cc1.Cl [NCL061]							>128	>128	>128	8	>128	>128	activity against VRE among analogues [2]: greatest activity
Cl.N=C(NN=Cc1ccc(O)c(O)c1O)NN=Cc1ccc(O)c(O)c1O [NCL105]	64	>128	64	>128	>128	>128							activity against VRE among analogues [2]: greatest activity
Cc1ccccc1/C=N/NC(=O)N/N=C/c1ccccc1C [NCL018]							>128	>128	>128	>128	>128	>128	
C/C(=N\NC(=N)N/N=C/c1ccc(C(F)(F)F)cc1)c1ccc(Cl)cc1.Cl [NCL068]							>128	>128	>128	>128	>128	>128	
Cl.N=C(NN=Cc1cnc2ccccc2n1)NN=Cc1cnc2ccccc2n1 [NCL 147]	>128	>128	>128	>128	>128	>128							
Cl.N=C(NN=Cc1ccc(Br)o1)NN=Cc1ccc(Br)o1 [NCL 144]	>128	>128	>128	>128	>128	>128							
COc1cc(Br)c(C=NNC(=N)NN=Cc2cc(OC)c(OC)cc2Br)cc1OC.Cl [NCL 135]	>128	>128	>128	>128	>128	>128							
CC(C)(C)c1ccc(/C=N/Nc2cc(N/N=C/c3ccc(C(C)(C)C)cc3)nc(N)n2)cc1 [NCL200]													MIC (μg/ml) at 24 hours, MRSA 1 ([1]; MRSA 1, 24 hours): >128 µg/mL; MIC (μg/ml) at 24 hours, MRSA 2 ([1]; MRSA 2, 24 hours): >128 µg/mL; MIC (μg/ml) at 24 hours, VRE 1 ([2]; VRE 1, 24 hours): >128 µg/mL; MIC (μg/ml) at 24 hours, VRE 2 ([2]; VRE 2, 24 hours): >128 µg/mL; MIC (μg/ml) at 24 hours, E. coli ([3]; E. coli): >128 µg/mL; MIC (μg/ml) at 24 hours, P. aeruginosa ([4]; P. aeruginosa): >128 µg/mL

Reference: patent publication US10253002B2, “Compounds and methods of treating infections” (Neoculi Pty Ltd., priority 2013, dated 2019)
